Assay results reported in patent US20260125382A1, “COMPOUNDS FOR INHIBITING OR DEGRADING CDK2 AND/OR CDK9 AND MEDICINAL USE THEREOF” (KOREA RESEARCH INSTITUTE OF CHEMICAL TECHNOLOGY, priority 2022, published 2026).

Experiments:
CDK2 = molecular target: T1, CDK2 (Homo sapiens, UniProt P24941); assay: CDK protein degradation activity (Western blotting), CDK2; assay type: cell-based; conditions: MDA-MB-231 cells, 16 hours, Western blot
T1 construct: endogenous in cells; host or cells: MDA-MB-231
Summary of the method: (§1)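 CDK2 and CDK9 protein levels measured by Western blot with densitometry, using tubulin as loading reference. Cells were MDA-MB-231, exposed for 16 h to 100 nM, 1 μM or 10 μM compound or to DMSO.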

CDK9 = molecular target: T2, CDK9 (Homo sapiens, UniProt P50750); assay: CDK protein degradation activity (Western blotting), CDK9; assay type: cell-based; conditions: MDA-MB-231 cells, 16 hours, Western blot
T2 construct: endogenous in cells; host or cells: MDA-MB-231
Summary of the method: as §1

T2 sequence (P50750 whole entry): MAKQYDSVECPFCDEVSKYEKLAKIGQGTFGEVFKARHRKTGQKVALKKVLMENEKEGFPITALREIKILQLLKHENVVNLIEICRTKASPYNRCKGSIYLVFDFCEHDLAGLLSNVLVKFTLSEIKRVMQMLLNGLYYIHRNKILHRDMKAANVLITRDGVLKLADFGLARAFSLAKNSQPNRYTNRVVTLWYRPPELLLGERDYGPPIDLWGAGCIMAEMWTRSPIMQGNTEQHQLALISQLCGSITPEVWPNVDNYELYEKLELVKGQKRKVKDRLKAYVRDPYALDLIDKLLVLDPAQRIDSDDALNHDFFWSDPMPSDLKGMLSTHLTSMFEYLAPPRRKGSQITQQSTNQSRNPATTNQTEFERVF

O=C1CC[C@H](N2C(=O)c3cc(F)c(N4CCC(CCCN5CCN(c6ccc(Nc7ncnc8c7ncn8[C@H]7C[C@@H](NC(=O)Cc8ccccc8)C7)cc6)CC5)CC4)cc3C2=O)C(=O)N1 [Compound 458, N-((1s,3s)-3-(6-((4-(4-(3-(1-(2-(2,6-dioxopiperidin-3-yl)-6-fluoro-1,3-dioxoisoindolin-5-yl)piperidin-4-yl)propyl)piperazin-1-yl)phenyl)amino)-9H-purin-9-yl)cyclobutyl)-2-phenylacetamide]
Enzyme degradation CDK2 (% remaining) @ 0.1 μM (CDK2): 50/50/50% | Enzyme degradation CDK2 (% remaining) @ 1 μM (CDK2): 50/50/50% | Enzyme degradation CDK2 (% remaining) @ 10 μM (CDK2): 50/50/50% | Enzyme degradation CDK9 (% remaining) @ 0.1 μM (CDK9): 10% | Enzyme degradation CDK9 (% remaining) @ 1 μM (CDK9): 10% | Enzyme degradation CDK9 (% remaining) @ 10 μM (CDK9): 20%

O=C1CC[C@H](N2C(=O)c3cc(F)c(N4CCC(C(=O)N5CCC(CCCN6CCN(c7ccc(Nc8ncnc9c8ncn9[C@H]8C[C@@H](NC(=O)Cc9ccccc9)C8)cc7)CC6)CC5)CC4)cc3C2=O)C(=O)N1 [Compound 459, N-((1s,3s)-3-(6-((4-(4-(3-(1-(1-(2-(2,6-dioxopiperidin-3-yl)-6-fluoro-1,3-dioxoisoindolin-5-yl)piperidin-4-carbonyl)piperidin-4-yl)propyl)piperazin-1-yl)phenyl)amino)-9H-purin-9-yl)cyclobutyl)-2-phenylacetamide]
Enzyme degradation CDK2 (% remaining) @ 0.1 μM (CDK2): 50% | Enzyme degradation CDK2 (% remaining) @ 1 μM (CDK2): 30% | Enzyme degradation CDK2 (% remaining) @ 10 μM (CDK2): 30% | Enzyme degradation CDK9 (% remaining) @ 0.1 μM (CDK9): 0/0/0% | Enzyme degradation CDK9 (% remaining) @ 1 μM (CDK9): 0/0/0% | Enzyme degradation CDK9 (% remaining) @ 10 μM (CDK9): 0/0/0%

O=C1CC[C@H](N2C(=O)c3cc(F)c(N4CCC(C(=O)N5CCC6(CC5)CC(N5CCN(c7ccc(Nc8ncnc9c8ncn9C8CC(NC(=O)Cc9ccccc9)C8)cc7)CC5)C6)CC4)cc3C2=O)C(=O)N1 (stereo partly drawn) [Compound 460, N-((1s,3s)-3-(6-((4-(4-(7-(1-(2-(2,6-dioxopiperidin-3-yl)-6-fluoro-1,3-dioxoisoindolin-5-yl)piperidin-4-carbonyl)-7-azaspiro[3.5]nonan-2-yl)piperazin-1-yl)phenyl)amino)-9H-purin-9-yl)cyclobutyl)-2-phenylacetamide]
Enzyme degradation CDK2 (% remaining) @ 0.1 μM (CDK2): 40/40/40% | Enzyme degradation CDK2 (% remaining) @ 1 μM (CDK2): 40/40/40% | Enzyme degradation CDK2 (% remaining) @ 10 μM (CDK2): 40/40/40% | Enzyme degradation CDK9 (% remaining) @ 0.1 μM (CDK9): 0/0/0% | Enzyme degradation CDK9 (% remaining) @ 1 μM (CDK9): 0/0/0% | Enzyme degradation CDK9 (% remaining) @ 10 μM (CDK9): 0/0/0%

O=C1CCC(N2C(=O)c3cc(F)c(N4CCC(C(=O)N5CCC(CN6CCC(CCNc7ncnc8c7ncn8[C@H]7C[C@@H](NC(=O)Cc8ccccc8)C7)CC6)CC5)CC4)cc3C2=O)C(=O)N1 (stereo partly drawn) [Compound 461, N-((1s,3s)-3-(6-((2-(1-((1-(1-(2-(2,6-dioxopiperidin-3-yl)-6-fluoro-1,3-dioxoisoindolin-5-yl)piperidin-4-carbonyl)piperidin-4-yl)methyl)piperidin-4-yl)ethyl)amino)-9H-purin-9-yl)cyclobutyl)-2-phenylacetamide]
Enzyme degradation CDK2 (% remaining) @ 0.1 μM (CDK2): 70% | Enzyme degradation CDK2 (% remaining) @ 1 μM (CDK2): 40% | Enzyme degradation CDK2 (% remaining) @ 10 μM (CDK2): 40% | Enzyme degradation CDK9 (% remaining) @ 0.1 μM (CDK9): 30% | Enzyme degradation CDK9 (% remaining) @ 1 μM (CDK9): 0% | Enzyme degradation CDK9 (% remaining) @ 10 μM (CDK9): 0%

O=C1CC[C@H](N2C(=O)c3cc(F)c(N4CCC(C(=O)N5CCC(CN6CCN(c7ccc(Nc8ncnc9c8ncn9[C@H]8C[C@@H](NC(=O)c9c(Cl)cccc9Cl)C8)cc7)CC6)CC5)CC4)cc3C2=O)C(=O)N1 [Compound 462, 2,6-dichloro-N-((1s,3s)-3-(6-((4-(4-((1-(1-(2-(2,6-dioxopiperidin-3-yl)-6-fluoro-1,3-dioxoisoindolin-5-yl)piperidin-4-carbonyl)piperidin-4-yl)methyl)piperazin-1-yl)phenyl)amino)-9H-purin-9-yl)cyclobutyl)benzamide]
Enzyme degradation CDK2 (% remaining) @ 0.1 μM (CDK2): 30% | Enzyme degradation CDK2 (% remaining) @ 1 μM (CDK2): 20% | Enzyme degradation CDK2 (% remaining) @ 10 μM (CDK2): 20% | Enzyme degradation CDK9 (% remaining) @ 0.1 μM (CDK9): 0/0/0% | Enzyme degradation CDK9 (% remaining) @ 1 μM (CDK9): 0/0/0% | Enzyme degradation CDK9 (% remaining) @ 10 μM (CDK9): 0/0/0%
